# pIC50, pKi: −log10 of the molar value. Where a name gives a salt, the structure may show the parent alone. Read-outs that look alike come from different tables or passages of the source.
# How the values were obtained:
# PDGFRβ [1] = target: T1, PDGFRβ (Homo sapiens (Human), UniProt P09619); experiment: PDGF-BB induced phosphorylation of PDGFRβ in fibroblasts (MRC5, HTRF); type: cell-based; conditions: MRC5 cells, PDGFBB stimulation; read-out: PDGFBB-induced PDGFRβ phosphorylation in MRC5 cells (IC50)
# T1 sequence (P09619 33-1106): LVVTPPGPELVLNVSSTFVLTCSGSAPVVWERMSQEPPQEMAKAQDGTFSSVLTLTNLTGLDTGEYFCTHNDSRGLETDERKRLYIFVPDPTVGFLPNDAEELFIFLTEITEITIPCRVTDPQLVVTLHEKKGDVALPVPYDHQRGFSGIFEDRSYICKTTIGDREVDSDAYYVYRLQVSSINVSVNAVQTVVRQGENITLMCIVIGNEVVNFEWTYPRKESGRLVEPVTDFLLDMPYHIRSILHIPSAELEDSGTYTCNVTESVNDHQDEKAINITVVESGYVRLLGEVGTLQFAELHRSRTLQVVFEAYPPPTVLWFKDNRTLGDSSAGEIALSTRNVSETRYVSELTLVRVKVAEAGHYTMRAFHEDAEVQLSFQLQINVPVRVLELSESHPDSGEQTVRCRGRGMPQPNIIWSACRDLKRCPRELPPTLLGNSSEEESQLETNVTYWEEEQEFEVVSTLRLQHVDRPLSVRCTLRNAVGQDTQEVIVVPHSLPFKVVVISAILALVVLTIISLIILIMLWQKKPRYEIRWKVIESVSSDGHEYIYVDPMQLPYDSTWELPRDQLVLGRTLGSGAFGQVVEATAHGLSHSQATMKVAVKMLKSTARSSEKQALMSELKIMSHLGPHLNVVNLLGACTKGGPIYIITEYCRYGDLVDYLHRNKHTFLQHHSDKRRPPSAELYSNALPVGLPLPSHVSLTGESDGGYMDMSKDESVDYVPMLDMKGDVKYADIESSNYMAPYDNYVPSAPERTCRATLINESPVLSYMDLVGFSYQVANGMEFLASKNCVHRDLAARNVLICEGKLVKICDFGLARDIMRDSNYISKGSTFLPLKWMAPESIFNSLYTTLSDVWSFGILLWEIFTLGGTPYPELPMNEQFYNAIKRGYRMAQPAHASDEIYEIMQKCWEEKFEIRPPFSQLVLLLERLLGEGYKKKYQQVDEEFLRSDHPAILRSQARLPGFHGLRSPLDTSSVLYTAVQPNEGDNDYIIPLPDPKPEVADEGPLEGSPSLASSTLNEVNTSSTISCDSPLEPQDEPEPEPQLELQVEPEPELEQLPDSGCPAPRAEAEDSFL
# PAMPA permeability assay = type: in vitro ADME; conditions: pH 7, PAMPA; for Papp at 5 h, 10 µM: pH 7, 10 μM
# [2] = Pharmacokinetic measurements in rats (i.v., i.t., oral); type: in vivo; conditions: rat; for concentration at 0.1 h / concentration at 1.5 h / concentration at 6 h / concentration at 24 h: male, CD, lung; for concentration at 0.1 h: read-out: lung concentration (nM) at time 0.1 h; for concentration at 1.5 h: read-out: lung concentration (nM) at time 1.5 h; for concentration at 6 h: read-out: lung concentration (nM) at time 6 h; for concentration at 24 h: read-out: lung concentration (nM) at time 24 h
# PDGFRβ [3] = target: T1, PDGFRβ; experiment: PDGFRβ enzyme inhibition (ADP-Glo assay); type: biochemical; conditions: mean, n = 2 (nintedanib n = 34)
# MRC5 cells = experiment: Cell viability assay in MRC5 cells (MTT)
# [4] = i.t. dose 0.1 (nintedanib 0.42)
# [5] = i.v. dose 0.1 (nintedanib 0.42)
Structure (SMILES),pIC50 (PDGFRβ [1]),"recovery at 5 hr, 10 μM (PAMPA permeability assay) [%]","Papp at 5 h, 10 µM (PAMPA permeability assay) [×10⁻⁶ cm/s]",pKi (PDGFRβ [3]),Cell viability at 100 nM (%) (MRC5 cells),Cell viability at 300 nM (%) (MRC5 cells),Cell viability at 1000 nM (%) (MRC5 cells),other results
"COC(=O)c1cc2c(cc1C)/C(=C(/Nc1ccc(C(=O)NCCN3CCN(C)CC3)cc1)c1ccccc1)C(=O)N2 [Example 4, (Z)-Methyl 5-methyl-3-(((4-((2-(4-methylpiperazin-1-yl)ethyl)carbamoyl)phenyl)amino)(phenyl)methylene)-2-oxoindoline-6-carboxylate]",7.85,76,0.0216,7.94,–,–,–,"concentration at 0.1 h ([2]; iv): 959 nM; concentration at 1.5 h ([2]; iv): 641 nM; concentration at 6 h ([2]; iv): 156 nM; concentration at 24 h ([2]; iv): 88 nM; concentration at 0.1 h ([2]; other: intra-tracheal): 3490 nM; concentration at 1.5 h ([2]; other: intra-tracheal): 1210 nM; concentration at 6 h ([2]; other: intra-tracheal): 475 nM; concentration at 24 h ([2]; other: intra-tracheal): 370 nM; BAL % administered dose at time 0.1 h [2, 4]: 3.4%; BAL % administered dose at time 1.5 h [2, 4]: 0.4%; BAL % administered dose at time 6 h [2, 4]: 0.4%; BAL % administered dose at time 24 h [2, 4]: 0.3%; BAL % administered dose at time 0.1 h [2, 5]: 0.07%; BAL % administered dose at time 1.5 h [2, 5]: 0.04%; BAL % administered dose at time 6 h [2, 5]: BQL; BAL % administered dose at time 24 h [2, 5]: BQL"
"COC(=O)c1cc2c(cc1C)/C(=C(/Nc1ccc(C(=O)NCCC(=O)N3CCN(C)CC3)cc1)c1ccccc1)C(=O)N2 [Example 10, (Z)-Methyl 5-methyl-3-(((4-((3-(4-methylpiperazin-1-yl)-3-oxopropyl)carbamoyl)phenyl)amino) (phenyl)methylene)-2-oxoindoline-6-carboxylate]",7.80,70.4,0.0428,7.90,85,118.9,108.4,–
"CNC(=O)CN1CCN(C(=O)c2ccc(N/C(=C3\C(=O)Nc4cc(C(=O)OC)c(C)cc43)c3ccccc3)cc2)CC1 [Example 11, (Z)-Methyl 5-methyl-3-(((4-(4-(2-(methylamino)-2-oxoethyl)piperazine-1-carbonyl)phenyl)amino) (phenyl)methylene)-2-oxoindoline-6-carboxylate]",8.56,93.2,0.0479,7.97,82,67.8,28.5,–
"COC(=O)c1cc2c(cc1C)/C(=C(/Nc1ccc(C(=O)NC3CCN(CCO)CC3)cc1)c1ccccc1)C(=O)N2 [Example 13, (Z)-Methyl 3-(((4-((1-(2-hydroxyethyl)piperidin-4-yl)carbamoyl)phenyl)amino) (phenyl)methylene)-5-methyl-2-oxoindoline-6-carboxylate]",8.90,76.3,0.0439,7.98,84.3,93.2,102.1,–
"COC(=O)c1cc2c(cc1C)/C(=C(/Nc1ccc(C(=O)N3CCN(C)CC3)cc1)c1ccccc1)C(=O)N2 [Example 17, (Z)-Methyl 5-methyl-3-(((4-(4-methylpiperazine-1-carbonyl)phenyl)amino)(phenyl)methylene)-2-oxoindoline-6-carboxylate]",8.35,59.8,24.6,8.03,76.2,63.6,34.1,–
"COC(=O)c1cc2c(cc1C)/C(=C(/Nc1ccc(C(=O)N3CCN(CCO)CC3)cc1)c1ccccc1)C(=O)N2 [Example 19, (Z)-Methyl 3-(((4-(4-(2-hydroxyethyl)piperazine-1-carbonyl)phenyl)amino)(phenyl)methylene)-5-methyl-2-oxoindoline-6-carboxylate, 0.5 formate]",8.30,61.8,0.589,8.06,85.5,71.8,21.9,–
"COCCN1CCC(NC(=O)c2ccc(N/C(=C3\C(=O)Nc4cc(C(=O)OC)c(C)cc43)c3ccccc3)cc2)CC1 [Example 20, (Z)-Methyl 3-(((4-((1-(2-methoxyethyl)piperidin-4-yl)carbamoyl)phenyl)amino)(phenyl)methylene)-5-methyl-2-oxoindoline-6-carboxylate]",7.41,104,0.0165,7.72,92.6,91.7,87.2,–
"COC(=O)c1cc2c(cc1C)/C(=C(/Nc1ccc(C(=O)NCCCN3CCN(C)CC3)cc1)c1ccccc1)C(=O)N2 [Example 21, (Z)-Methyl-5-methyl-3-(((4-((3-(4-methylpiperazin-1-yl)propyl)carbamoyl)phenyl)amino)(phenyl)methylene)-2-oxoindoline-6-carboxylate, formate]",7.45,76,0.0442,8.21,139.6,127.3,98.8,–
"COC(=O)c1cc2c(cc1C)/C(=C(/Nc1ccc(C(=O)NCCCN(C)C)cc1)c1ccccc1)C(=O)N2 [Example 22, (Z)-Methyl 3-(((4-((3-(dimethylamino)propyl)carbamoyl)phenyl)amino)(phenyl)methylene)-5-methyl-2-oxoindoline-6-carboxylate, 0.5 formate]",7.91,101,0.046,8.03,72.3,58.8,48.8,–
"COC(=O)c1cc2c(cc1C)/C(=C(/Nc1ccc(S(=O)(=O)NCCN(C)C)cc1)c1ccccc1)C(=O)N2 [Example 25, (Z)-Methyl 3-(((4-(N-(2-(dimethylamino)ethyl)sulfamoyl)phenyl)amino)(phenyl)methylene)-5-methyl-2-oxoindoline-6-carboxylate, formate]",7.62,105,11,7.93,83.2,74.7,55.4,–
"COC(=O)c1cc2c(cc1C)/C(=C(/Nc1ccc(S(=O)(=O)N3CCN(CCO)CC3)cc1)c1ccccc1)C(=O)N2 [Example 26, (Z)-Methyl 3-(((4-((4-(2-hydroxyethyl)piperazin-1-yl)sulfonyl)phenyl)amino)(phenyl)methylene)-5-methyl-2-oxoindoline-6-carboxylate, formate]",7.74,96.2,10.3,7.35,84.4,91.6,57.6,–
"COC(=O)c1cc2c(cc1C)/C(=C(/Nc1ccc(C(=O)N[C@H]3CCCN(C)C3)cc1)c1ccccc1)C(=O)N2 [Example 27, (S,Z)-Methyl 5-methyl-3-(((4-((1-methylpiperidin-3-yl)carbamoyl)phenyl)amino)(phenyl)methylene)-2-oxoindoline-6-carboxylate, 0.5 formate]",7.37,54.3,16.8,7.74,106.5,112.6,82.9,–
"COC(=O)c1cc2c(cc1C)/C(=C(/Nc1ccc(C(=O)NCCCN3CCOCC3)cc1)c1ccccc1)C(=O)N2 [Example 29, (Z)-Methyl 5-methyl-3-(((4-((3-morpholinopropyl)carbamoyl)phenyl)amino)(phenyl)methylene)-2-oxoindoline-6-carboxylate]",8.44,72.1,0.373,7.95,116.9,72.5,60.8,–
"COC(=O)c1cc2c(cc1C)/C(=C(/Nc1ccc(C(=O)N3CCC4(CC3)C(=O)NCCN4C)cc1)c1ccccc1)C(=O)N2 [Example 30, (Z)-Methyl 5-methyl-3-(((4-(1-methyl-5-oxo-1,4,9-triazaspiro[5.5]undecane-9-carbonyl)phenyl)amino)(phenyl)methylene)-2-oxoindoline-6-carboxylate]",8.22,87.2,0.0235,8.00,107.2,85.3,16.4,–
"COC(=O)c1cc2c(cc1C)/C(=C(/Nc1ccc(C(=O)N3CCC(C(=O)NCCN(C)C)CC3)cc1)c1ccccc1)C(=O)N2 [Example 31, (Z)-Methyl 3-(((4-(4-((2-(dimethylamino)ethyl)carbamoyl)piperidine-1-carbonyl)phenyl)amino)(phenyl)methylene)-5-methyl-2-oxoindoline-6-carboxylate, 0.4 formate]",8.26,66.2,0.00531,8.32,69.3,47.3,34.3,–

# From patent US10669235B2, “Indole derivatives and their use as protein kinase inhibitors” (RESPIVERT LIMITED, priority 2016, dated 2020)
